Data: US7101967B2, “Transport vectors” (priority 1998, dated 2006)
Square brackets hold non-standard residues; d marks the D form. Peptide text beside a SMILES is read from it. * marks the point of attachment. X3 = COc1cc([C@@H]2c3cc4c(cc3[C@@H](Nc3ccc(NC(=O)CCN5C(=O)CC(*)C5=O)cc3)[C@H]3COC(=O)[C@H]23)OCO4)cc(O)c1O; Biotin = O=C1N[C@H]2[C@H](CS[C@H]2CCCCC(=O)*)N1; βAla = NCCC(=O)O

Legend:
HaCaT cells = assay: Peptide internalisation assay (biotinylated peptides, alkaline phosphatase-streptavidin detection); type: cell-based, human; settings: for internalised into cells / active in the cell internalisation assay (qualitative): assay of section 1.3; for degree of internalisation / membrane translocation relative to control peptide 1: FIG. 2, one peptide concentration, same pattern regardless of concentration
Description: HaCaT cells (immortalised ‘normal’ human […] cell line) were seeded into 96-well plates at 50,000 cells per well in medium (DMEM) with 10% foetal calf serum and antibiotics. After an overnight incubation, peptides were prepared as dilution series in cell medium and were added to the cells. At the end of the incubation period (usually 10 and 60 min), the cells were rinsed three times with PBS and fixed for 20 min at −20° C. in EtOH/AcOH (95:5). After the fixation, the cells were made permeable by treatment for 10 min with PBS containing 3% Tween-20. Endogenous alkaline phosphatase activity was neutralised by incubation at 65° C. for 60 min. Cells were incubated for 30 min at room temperature with alkaline phosphatase-streptavidin (Pierce Chemical Co., Rockford, Ill., USA) in 0.1% BSA in PBS and washed extensively with PBS. Freshly prepared substrate solution (1 mg/mL p-nitrophenyl phosphate disodium (Pierce Chemical Co.) in 10 mM diethanolamine (pH 9.5) containing 0.5 mM MgCl, was added to each well and incubated until sufficient colour had developed (approximately 30 min.). The enzymatic reaction was stopped by adding 50 μL 2 M aq NaOH to each well. Alkaline phosphatase activity was measured spectrophotometrically at 405 nm.

[1] = system: purified recombinant human topoisomerase II; assay: Topoisomerase II inhibition assay (cleavage and relaxation of plasmid DNA); type: biochemical; parameters: key: I denotes inhibition of relaxation of supercoiled plasmid by topoisomerase II; C denotes accumulation of topoisomerase II reaction intermediate; settings: test compound at 1 mM, 100 μM, or 10 μM final concentration; cleavage and relaxation assays
Description: Topoisomerase II assay—Plasmid DNA (0.3 μg) was incubated at 37° C. with 4 units of purified recombinant human topoisomerase II in cleavage buffer (30 mM Tris.HCl, pH 7.6, 60 mM NaCl, 3 mM ATP, 15 mM mercaptoethanol, 8 mM MgCl2) with or without the addition of test compound (at 1 mM, 100 μM, or 10 μM final concentration). Reactions were stopped by the immediate addition of SDS (1% w/v final). Samples were treated with proteinase K (30 min at 37° C.) and extracted twice with an equal volume of 42:1 CHCl3/i-amyl alcohol. After adding loading dye samples were loaded to a 4×TAE, 1% agarose gel containing […] ethidium bromide and electrophoresed for 16-24 h. Topoisomerase II inhibition was judged by the production of linear plasmid DNA, representing trapped cleavage intermediate, and by the ratio of substrate (spercoiled DNA) to product (relaxed DNA). A relaxation assay was performed identically, except that the reaction buffer was optimised for the detection of catalysis rather than cleavage i.e. only 2 units of enzyme were used per sample. The reaction buffer was 50 mM Tris.HCl, pH 8, 120 mM KCl, 0.5 mM ATP, 0.5 mM dithiothreitol, 10 mM MgCl2. Topoisomerase II inhibition was judged by the ratio of substrate (supercoiled DNA) to product (relaxed DNA).

live cells = assay: Visualisation of cell internalisation (biotin-avidin and direct fluorescein probe); type: cell-based; settings: FIG. 4, visualisation in cells
Description: This assay permitted the study and measurement of cell internalisation without the possibility of observing artefacts emanating from the cell manipulations necessary with the biotinylated peptides. […] (squares when t=10 mins, diamonds when t=60 mins). […] Nuceolar accumulation may be due to non-specific binding of the positively charged peptide to DNA.

[2] = Maximum tolerated dose by iv administration in mice; settings: mouse, in vivo

Compound	internalised into cells / active in the cell internalisation assay (qualitative) (HaCaT cells)	further results
RORKWKK	internalised into cells	
NRRMKWKK	internalised into cells	
RRMKQKK	internalised into cells	
RROKKWK	internalised into cells	
RROKWKK [O = norleucine]	internalised into cells	
Biotinyl-βAla-Trp-Phe-Gln-Asn-Arg-Arg-Met-Lys-Trp-Lys-Lys-NH2 (Biotin-[βAla]WFQNRRMKWKK-NH2; SMILES CSCC[C@H](NC(=O)[C@H](CCCNC(=N)N)NC(=O)[C@H](CCCNC(=N)N)NC(=O)[C@H](CC(N)=O)NC(=O)[C@H](CCC(N)=O)NC(=O)[C@H](Cc1ccccc1)NC(=O)[C@H](Cc1c[nH]c2ccccc12)NC(=O)CCNC(=O)CCCC[C@@H]1SC[C@@H]2NC(=O)N[C@@H]21)C(=O)N[C@@H](CCCCN)C(=O)N[C@@H](Cc1c[nH]c2ccccc12)C(=O)N[C@@H](CCCCN)C(=O)N[C@@H](CCCCN)C(N)=O) [Peptide 15]		degree of internalisation / membrane translocation relative to control peptide 1 (HaCaT cells): only about half of the original signal was left
KRMKWKK	internalised into cells	
RRMKKWK	internalised into cells	
RKMKWKK	internalised into cells	
RRMWKKK	internalised into cells	
RROWKKK	internalised into cells	
KKWKORR	internalised into cells	
Biotinyl-βAla-Arg-Met-Lys-Trp-Lys-Lys-NH2 (Biotin-[βAla]RMKWKK-NH2; SMILES CSCC[C@H](NC(=O)[C@H](CCCNC(=N)N)NC(=O)CCNC(=O)CCCC[C@@H]1SC[C@@H]2NC(=O)N[C@@H]21)C(=O)N[C@@H](CCCCN)C(=O)N[C@@H](Cc1c[nH]c2ccccc12)C(=O)N[C@@H](CCCCN)C(=O)N[C@@H](CCCCN)C(N)=O) [Peptide 20]		degree of internalisation / membrane translocation relative to control peptide 1 (HaCaT cells): severe drop
COc1cc([C@@H]2c3cc4c(cc3[C@@H](Nc3ccc(NC(=O)CCN5C(=O)CC(SC[C@H](N)C(=O)NCCC(=O)N[C@@H](CCCNC(=N)N)C(=O)N[C@@H](CCCNC(=N)N)C(=O)N[C@@H](CCSC)C(=O)N[C@@H](CCCCN)C(=O)N[C@@H](Cc6c[nH]c7ccccc67)C(=O)N[C@@H](CCCCN)C(=O)N[C@@H](CCCCN)C(N)=O)C5=O)cc3)[C@H]3COC(=O)[C@H]23)OCO4)cc(O)c1O (stereo partly drawn) [4′-Demethyl-4-[4″-aminoanilino-(succinimidopropionoyl)-(H-Cys-βAla-Arg-Arg-Met-Lys-Trp-Lys-Lys-NH2)]epipodophyllotoxin] (H-C(X3)[βAla]RRMKWKK-NH2)		Activity observed (topoisomerase II) [1]: I
RRMKWFK	internalised into cells	
RRQKWKK	internalised into cells	
Biotinyl-βAla-Arg-Gln-Ile-Lys-Ile-Trp-Phe-Gln-Asn-Arg-Arg-Met-Lys-Trp-Lys-Lys-NH2 (ARQIKIWFQNRRMKWKK; N-terminal biotin, beta-residue; C-terminal amide; MOD_RES (1) bAla) [Peptide 1]		subcellular localisation after internalisation (live cells): localises predominantly to the cell nucleus and accumulates in the nucleoli, with lesser concentration in the cytosol
RREKWKK	internalised into cells	
CC[C@H](C)[C@H](NC(=O)[C@H](CCCCN)NC(=O)[C@@H](NC(=O)[C@H](CCC(N)=O)NC(=O)[C@H](CCCNC(=N)N)NC(=O)[C@@H](N)CSC1CC(=O)N(CCC(=O)O[C@H]2c3cc4c(cc3[C@@H](c3cc(OC)c(OC)c(OC)c3)[C@H]3C(=O)OC[C@@H]32)OCO4)C1=O)[C@@H](C)CC)C(=O)N[C@@H](Cc1c[nH]c2ccccc12)C(=O)N[C@@H](Cc1ccccc1)C(=O)N[C@@H](CCC(N)=O)C(=O)N[C@@H](CC(N)=O)C(=O)N[C@@H](CCCNC(=N)N)C(=O)N[C@@H](CCCNC(=N)N)C(=O)N[C@@H](CCSC)C(=O)N[C@@H](CCCCN)C(=O)N[C@@H](Cc1c[nH]c2ccccc12)C(=O)N[C@@H](CCCCN)C(=O)N[C@@H](CCCCN)C(=O)NCC(=O)N[C@@H](CS)C(=O)NCC(N)=O (some centres unmarked) [podophyllotoxin, 16-mer]		MTD [2]: ~40 mg/kg
Biotinyl-βAla-Ile-Trp-Phe-Gln-Asn-Arg-Arg-Met-Lys-Trp-Lys-Lys-NH2 (Biotin-[βAla]IWFQNRRMKWKK-NH2; SMILES CC[C@H](C)[C@H](NC(=O)CCNC(=O)CCCC[C@@H]1SC[C@@H]2NC(=O)N[C@@H]21)C(=O)N[C@@H](Cc1c[nH]c2ccccc12)C(=O)N[C@@H](Cc1ccccc1)C(=O)N[C@@H](CCC(N)=O)C(=O)N[C@@H](CC(N)=O)C(=O)N[C@@H](CCCNC(=N)N)C(=O)N[C@@H](CCCNC(=N)N)C(=O)N[C@@H](CCSC)C(=O)N[C@@H](CCCCN)C(=O)N[C@@H](Cc1c[nH]c2ccccc12)C(=O)N[C@@H](CCCCN)C(=O)N[C@@H](CCCCN)C(N)=O) [Peptide 14]		degree of internalisation / membrane translocation relative to control peptide 1 (HaCaT cells): only about half of the original signal was left
QNRRMKWKK	internalised into cells	
RRMKWKK	internalised into cells	
COc1cc(C2c3cc4c(cc3C(Nc3ccc(N)cc3)C3COC(=O)C23)OCO4)cc(OC)c1O (centres unmarked) [4′-Demethyl-4-(4″-aminoanilino)epipodophyllotoxin, reference compound]		Activity observed (topoisomerase II) [1]: I
